Tests used:
murine Bcrp1 = target: T1, murine Bcrp1 (Mus musculus, UniProt Q7TMS5); experiment: Transwell transport of temozolomide, MDCKII-Bcrp1 cells, without or with inhibitors; assay type: in vitro ADME; details: MDCKII-Bcrp1 cells
T1 construct: expressed in transfected cells; host or cells: MDCKII (canine kidney) cells transduced with murine Bcrp1
T1 sequence (Q7TMS5 1-657): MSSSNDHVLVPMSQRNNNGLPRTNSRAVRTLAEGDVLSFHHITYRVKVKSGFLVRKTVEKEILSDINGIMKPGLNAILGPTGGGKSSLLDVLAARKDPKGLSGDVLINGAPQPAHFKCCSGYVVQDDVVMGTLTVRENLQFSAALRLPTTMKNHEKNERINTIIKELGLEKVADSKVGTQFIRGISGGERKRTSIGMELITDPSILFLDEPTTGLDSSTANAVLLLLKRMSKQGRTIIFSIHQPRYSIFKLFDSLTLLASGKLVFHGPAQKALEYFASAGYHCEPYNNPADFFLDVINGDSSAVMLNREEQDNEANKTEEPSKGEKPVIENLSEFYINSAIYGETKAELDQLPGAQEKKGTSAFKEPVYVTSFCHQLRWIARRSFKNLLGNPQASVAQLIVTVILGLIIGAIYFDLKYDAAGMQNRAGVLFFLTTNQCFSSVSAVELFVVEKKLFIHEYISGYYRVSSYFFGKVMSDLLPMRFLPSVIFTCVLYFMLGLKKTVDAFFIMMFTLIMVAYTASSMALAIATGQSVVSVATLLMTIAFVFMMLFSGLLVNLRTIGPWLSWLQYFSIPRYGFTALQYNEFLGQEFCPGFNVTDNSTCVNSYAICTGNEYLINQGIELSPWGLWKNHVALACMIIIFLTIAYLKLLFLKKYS
Description: The parental LLC pig-kidney (PK1) cell line and sublines transduced with murine Mdr1a or human MDR1 (12) and the parental Madine Darby Canine Kidney (MDCK) and murine Bcrp1 or human BCRP transduced sublines (13) were seeded on Transwell microporous polycarbonate membrane filters (3.0 μm pore size, 24 mm diameter; Costar Corning, N.Y., USA) at a density of 1×10^6 cells per well in 2 ml of MEM medium (Invitrogen Corporation, Carlsbad, Calif.) containing 10% v/v fetal calf serum. Cells were incubated at 37° C. in 5% CO2 for three days with one medium replacement after the first day. Two hours before the start of the experiment the medium in both compartments was replaced with 2 ml of OptiMEM medium (InVitrogen Corp.). At the start of the experiment the medium in the apical or basolateral compartment was replaced with 2 ml of freshly prepared OptiMEM medium containing 40 μg/ml of temozolomide. […] Zosuquidar (LY335979, 5 μM) was always added to the medium when doing experiments with MDCK cell lines to inhibit endogenous canine P-gp. Samples of 50 μl were collected every 30 min, for up to 2 h after start of the experiment. Because temozolomide is instable in medium at 37° C., we replaced one ml of the donor compartment by a freshly prepared aliquot every 30 min. [^3H]-inulin (approximately 7 kBq per well) was added to the same compartment as temozolomide to check the integrity of the cell layer. Wells showing a leakage of more than 1.5% per hour were excluded.
First, we took samples every 30 min for up to 2 h instead of every hour for up to 4 h. Secondly, to maintain adequate temozolomide levels at the donor side throughout the experiment we replaced 1 ml of the 2 ml of medium at the donor side of the transwell at each sampling time by 1 ml of a freshly prepared temozolomide solution in medium.

P-gp [1] = experiment: Transwell control experiments with radioactively labeled P-gp and BCRP substrates; assay type: in vitro ADME; details: inhibitor 20 μM, radiolabeled substrates, results not shown
Description: Similar experiments were conducted in the parental canine MDCK cells and its transduced murine Bcrp1 or human BCRP sublines. […] Together with these experiments we ran control experiments using well-established P-gp and BCRP substrates that were available to us as radioactively labeled compounds (^14C-trabectedin and ^14C-Indisulan, or ^14C-topotecan). […] Moreover, the integrity of all monolayers was checked using ^3H-inuline as marker compound. Wells showing more than 1.5% translocation of inuline per 30 min were considered to be leaky and excluded from the analysis.

P-gp and BCRP = experiment: Temozolomide brain and plasma levels at 2 h with or without oral inhibitor; assay type: in vivo; details: wild-type mice, inhibitor 100 mg/kg oral, 2 h after temozolomide
Description: The mice were anesthetized with metoxyflurane and blood samples were obtained by cardiac puncture and collected on ice in tubes containing potassium EDTA as anticoagulant. […] Immediately after cardiac puncture the mice were killed by cervical dislocation and the brains were dissected and placed on ice. Within 60 min they were weighed and homogenized in 3 ml of ice-cold 1% of BSA in 0.05 M phosphate buffer adjusted to pH 2 and stored at −20° C. until further analysis. […] The brain-to-plasma ratio was calculated for each individual animal. The two-sided unpaired Student's t-test was used for statistical analysis of AUC values. Bonferroni's test for multiple comparisons was calculated using SPSS (v12.0.1; […]

[2] = in vivo; cited from earlier work
P-gp [3] = target: T2, P-gp (Mus musculus, UniProt P21447); details: Mdr1ab knockout mice; cited from earlier work
T2 construct: host or cells: mice (Mdr1ab knockout versus wild type)
T2 sequence (P21447 whole entry): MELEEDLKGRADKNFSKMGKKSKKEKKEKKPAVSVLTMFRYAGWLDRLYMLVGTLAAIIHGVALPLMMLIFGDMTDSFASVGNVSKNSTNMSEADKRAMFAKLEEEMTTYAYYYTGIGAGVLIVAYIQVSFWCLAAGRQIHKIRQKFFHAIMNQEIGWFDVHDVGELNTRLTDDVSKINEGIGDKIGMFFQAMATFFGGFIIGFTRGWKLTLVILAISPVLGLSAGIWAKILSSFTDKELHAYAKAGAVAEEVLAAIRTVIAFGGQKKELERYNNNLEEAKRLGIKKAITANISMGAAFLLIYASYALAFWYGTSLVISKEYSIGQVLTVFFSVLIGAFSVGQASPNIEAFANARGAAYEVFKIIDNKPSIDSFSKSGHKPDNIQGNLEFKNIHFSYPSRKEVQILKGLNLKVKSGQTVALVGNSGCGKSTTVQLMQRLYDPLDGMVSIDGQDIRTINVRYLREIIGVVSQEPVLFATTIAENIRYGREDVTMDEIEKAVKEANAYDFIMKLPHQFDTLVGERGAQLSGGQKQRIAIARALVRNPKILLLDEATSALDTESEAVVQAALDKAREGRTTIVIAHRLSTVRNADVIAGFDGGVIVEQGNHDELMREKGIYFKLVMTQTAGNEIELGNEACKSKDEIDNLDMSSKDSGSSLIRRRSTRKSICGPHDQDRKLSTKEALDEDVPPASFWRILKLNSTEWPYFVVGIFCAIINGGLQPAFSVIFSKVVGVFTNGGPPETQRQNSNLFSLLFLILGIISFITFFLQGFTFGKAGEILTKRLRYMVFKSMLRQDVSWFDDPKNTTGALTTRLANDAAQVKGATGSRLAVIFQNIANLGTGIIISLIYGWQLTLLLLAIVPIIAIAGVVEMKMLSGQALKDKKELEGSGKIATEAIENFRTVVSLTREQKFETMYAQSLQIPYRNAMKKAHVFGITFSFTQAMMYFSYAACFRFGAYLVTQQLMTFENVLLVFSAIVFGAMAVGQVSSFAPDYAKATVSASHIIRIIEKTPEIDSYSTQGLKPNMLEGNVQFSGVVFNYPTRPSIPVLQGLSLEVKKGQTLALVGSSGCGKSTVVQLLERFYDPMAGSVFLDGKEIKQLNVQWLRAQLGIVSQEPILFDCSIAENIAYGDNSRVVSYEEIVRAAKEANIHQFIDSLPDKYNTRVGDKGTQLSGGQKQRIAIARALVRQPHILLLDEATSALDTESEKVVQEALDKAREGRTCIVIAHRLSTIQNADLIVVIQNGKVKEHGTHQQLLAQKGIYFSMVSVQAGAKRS

[4] = tested on: intracranial Mel57-luc tumor xenografts; experiment: Efficacy against intracranial Mel57-luc tumor xenografts; assay type: in vivo, nude mice; details: wild-type nude mice, elacridar oral 100 mg/kg/day×5 20-30 min before temozolomide oral 100 mg/kg/day×5
Description: Intracranial Mel57-luc (luciferase transfected subline) tumor xenografts in wild-type nude mice (WT) and mdr1ab knockout nude mice (MDR) were established according to the protocol below (see Kemper et al, Eur J Cancer 42:3294-3303, 2006).
The Mel57 cell line (University Medical Centre, Nijmegen, The Netherlands) is a human melanoma cell line and was cultured in MEM (Life Technologies Inc., Breda, The Netherlands) supplemented with 10% foetal calf serum, non-essential amino acids, streptomycin, penicillin and sodium pyruvate (all Life Technologies), and incubated at 37° C. and 5% CO2 in humidified air. The cell line was further transfected by standard protocols with lipofectamine using a pBS vector containing a β-actin driven luciferase gene coupled via an internal ribosome […] to GFP. After expansion, GFP bright cells were sorted to single cells by FACS, expanded and sublines tested for luciferase expression by an in vitro bioluminescence assay (Promega, Benelux BV, Leiden, The Netherlands). Three to five sublines showing the highest luminescence activity were tested in vivo for tumour take and intracranial growth behaviour. To retrieve tumour cells for injection, the cell culture was trypsinised (trypsin 0.05%; EDTA 0.02%, Life Technologies), washed two times with Hanks Balanced Saline Solution (HBSS, Life Technologies Inc.), counted and resuspended in an appropriate volume of HBSS. The single cell suspension was kept on ice until injection. […]
Mel57-luc cells (100,000 cells/2 μl) were injected stereotactically in the brain as described in detail in Kemper et al^14. […] The amount of bioluminescence in each animal was calculated relative to the first measurement when therapy was initiated (arbitrarily set at 100%) and was log converted prior to data analysis. Tumor volume was measured by bioluminescence activity (see Kemper et al, Eur J Cancer 42:3294-3303, 2006).

COc1cc2ncnc(Nc3ccc(F)c(Cl)c3)c2cc1OCCCN1CCOCC1 [gefitinib]
effect on Bcrp1 mediated transport of temozolomide (murine Bcrp1; inhibitor 10 μM): (almost) completely abrogated
inhibition of P-gp mediated transport (P-gp [1]): sufficient
effect on temozolomide plasma level (P-gp and BCRP): significantly increased

C#Cc1cccc(Nc2ncnc3cc(OCCOC)c(OCCOC)cc23)c1 [erlotinib]
effect on Bcrp1 mediated transport of temozolomide (murine Bcrp1; inhibitor 10 μM): (almost) completely abrogated

CO[C@@H]1[C@@H](OC(N)=O)[C@@H](O)[C@H](Oc2ccc3c(O)c(NC(=O)c4ccc(O)c(CC=C(C)C)c4)c(=O)oc3c2C)OC1(C)C [novobiocin]
effect on Bcrp1 mediated transport of temozolomide (murine Bcrp1; inhibitor 50 μM): not sufficient

Cc1ccc(NC(=O)c2ccc(CN3CCN(C)CC3)cc2)cc1Nc1nccc(-c2cccnc2)n1 [imatinib]
oral bioavailability [2]: > 90%

CC(=O)O[C@H]1C(=O)[C@@]2(C)[C@H]([C@H](OC(=O)c3ccccc3)[C@]3(O)C[C@H](OC(=O)[C@H](O)[C@@H](NC(=O)c4ccccc4)c4ccccc4)C(C)=C1C3(C)C)[C@]1(OC(C)=O)CO[C@@H]1C[C@@H]2O [paclitaxel]
brain-to-plasma ratio relative to wild-type controls (P-gp [3]): more than 5 fold

COc1cc2c(cc1OC)CN(CCc1ccc(NC(=O)c3cccc4c(=O)c5cccc(OC)c5[nH]c34)cc1)CC2 [elacridar]
effect on Bcrp1 mediated transport of temozolomide (murine Bcrp1; inhibitor 5 μM): (almost) completely abrogated
efficacy of temozolomide with elacridar versus temozolomide alone [4]: more effective than temozolomide alone
